# Results: US20260199485A1, “RNA DEGRADERS AND USES THEREOF” (Arrakis Therapeutics, Inc., priority 2022, published 2026)
# Assays:
# CNOT7 = target: T1, CNOT7 (Homo sapiens, UniProt Q9UIV1); test: Binding of compounds to CNOT7 by surface plasmon resonance (SPR)
# T1 construct: biotin (biotinylated); purchased Ichor Life Sciences
# Protocol: Surface plasmon resonance (SPR) was used to evaluate the binding of compounds to CNOT7. Experiments were performed on a Biacore 8K (Cytiva) with a running buffer consisting of 20 mM HEPES pH7.5, 100 mM KCl, 3 mM MgCl2, 1 mM TCEP, 0.05% tween-20, 2% DMSO. Briefly, biotinylated CNOT7 (Ichor Life Sciences) at a concentration of 70 μg/ml was immobilized to a streptavidin coated chip (Cytiva sensor chip SA) for 1200 sec at a flow rate of 5 μl/min (typical immobilization level 7,500 RU). For compound binding experiments, various concentrations of analyte were flowed over the chip with 120 sec association phase, 120 sec dissociation phase, at a flow rate of 30 ul/min and collection rate of 10 Hz. Reference channel subtraction and solvent correction were applied to all sensograms prior to data analysis. Sensograms were fit to 1:1 steady state affinity model. FIGS. 3 and 4 show the binding of exemplary compounds and the AMP control (a known CNOT7 active site binder) at various concentrations to CNOT7.
# [1] = target: T2, CNOT7-FKBP12(F36V) fusion protein (Homo sapiens, UniProt Q9UIV1); test: Biochemical gel assay: degradation/deadenylation of RNA substrate with immunoprecipitated CNOT7-FKBP12(F36V); set-up: key to Activity by gel: +: an activity observed as compared to DMSO control; −: no activity observed as compared to DMSO control; details: for Activity by gel: Table 8, degradation of RNA, compared to DMSO control
# T2 construct: expressed in transfected cells; host or cells: H1299 cells; anti-HA immunoprecipitation, HA-peptide elution
# T2 sequence (Q9UIV1 with tags, fused parts or gaps): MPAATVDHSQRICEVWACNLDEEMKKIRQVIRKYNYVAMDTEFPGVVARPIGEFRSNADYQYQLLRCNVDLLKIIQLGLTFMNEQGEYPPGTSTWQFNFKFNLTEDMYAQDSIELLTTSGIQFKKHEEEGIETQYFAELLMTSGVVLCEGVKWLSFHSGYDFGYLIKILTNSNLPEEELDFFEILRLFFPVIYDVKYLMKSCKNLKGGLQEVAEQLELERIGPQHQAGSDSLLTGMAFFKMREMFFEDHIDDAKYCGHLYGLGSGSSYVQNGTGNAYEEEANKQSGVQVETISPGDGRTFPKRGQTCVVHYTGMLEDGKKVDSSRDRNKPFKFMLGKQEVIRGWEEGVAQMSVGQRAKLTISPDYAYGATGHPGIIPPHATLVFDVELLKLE
# From the text: Biochemical reporter systems were generated to evaluate the ability of CNOT7 binding compounds to accelerate the degradation of RNA by CNOT7. […] Generation of the target RNA was described in the previous experiment. […] The bifunctional molecules consist of Compound 1-4 and the following rSM:
# which binds to the RNA sequence of AST-X, or the rSM linked to a tag that binds CNOT7-FKBPV. Specifically, the tag is compound AP1867 (CAS NO.: 195514-23-9), a known binder of FKBPV, resulting in the rSM-AP1867tag. The CNOT7-FKBPV is obtained by immunoprecipitation of cell engineered to express CNOT-FKBPV. Specifically, H1299 cells were transfected with plasmid expressing HA-tagged CNOT7-FKBP12(F36V) fusion protein. After 24 hours, cells were pelleted and lysed in the following lysis buffer: 20 mM HEPES pH 7.3, 0.2 mM EGTA, 10% glycerol, 0.1 mM DTT with cOmplete EDTA-free protease inhibitors (Millipore). After freeze-thawing, NaCl was added to a concentration of 400 mM and lysates were pelleted to clear cellular debris. Cleared lysate was adjusted to buffer conditions containing 0.1% NP-40 and 150 mM NaCl before being applied to Pierce Anti-HA magnetic beads (ThermoFisher) at 4° C. for 2-20 hours with end-over-end rotation. After washing, bound protein was competitively eluted with 2 mg/mL HA peptide (ThermoFisher) in activity assay buffer at 4° C. for 2-20 hours. It should be appreciated that this immunoprecipitation protocol will result in tagged CNOT7 that will likely have other components of the CCR4-NOT complex bound as well.
# The reactions were incubated at 37° C., with specified timepoints removed from the reaction and combined with 2× formamide RNA loading buffer with 10 mM EDTA before boiling for 3 minutes to quench the reaction. Samples were run on a pre-warmed 15% TBE-Urea polyacrylamide gel at 180V for 90 minutes and then imaged using Cy2 settings on the Azure Biosystems 600 Imaging System. […] It should be noted that the CCR4-NOT complex includes proteins other than CNOT7, for instance CNOT6, that have deadenylation and/or exonuclease activity.
# These findings were confirmed in the biochemical assay described above. […] In contrast, literature compounds that are active site binders, compounds A, B and C, structure depicted on the right-hand side, do interfere with the ability of CNOT7 to degrade RNA (See center panel of gel).
# Heterobifunctional molecules were generated by conjugating the rSM depicted above, which binds RNA with an AST-X sequence, to AP1867 (a small molecule binder of FKBP12(F36V)), resulting in rSM-AP1867tag. In addition, I-243 was conjugated to the rSM resulting in compounds 1-329 and I-371, depicted in FIG. 17. Fluorescently labeled RNA substrates were refolded in the presence of Mg^2+ and incubated 10, 25, or 50 μM doses of heterobifunctional molecules for 30 minutes at room temperature before the enzymatic reaction was initiated with the elution fraction (containing CNOT7-FKBP12(F36V) fusion protein) from the immunoprecipitation protocol above. The reactions were incubated at 37° C., with specified timepoints removed from the reaction and combined with 2× formamide RNA loading buffer with 10 mM EDTA before boiling for 3 minutes to quench the reaction. Samples were run on a pre-warmed 15% TBE-Urea polyacrylamide gel at 180V for 120 minutes and then imaged using Cy2 settings on the Azure Biosystems 600 Imaging System (See FIGS. 18, 19A and 19B). In addition, for 1-371 and the control rSM-AP1867tag, the disappearance of the full-length substrate band was quantified using ImageJ and plotted over time (FIG. 19B).
# [2] = dissociation constant by SPR, Table 7
# T1 sequence (Q9UIV1 whole entry): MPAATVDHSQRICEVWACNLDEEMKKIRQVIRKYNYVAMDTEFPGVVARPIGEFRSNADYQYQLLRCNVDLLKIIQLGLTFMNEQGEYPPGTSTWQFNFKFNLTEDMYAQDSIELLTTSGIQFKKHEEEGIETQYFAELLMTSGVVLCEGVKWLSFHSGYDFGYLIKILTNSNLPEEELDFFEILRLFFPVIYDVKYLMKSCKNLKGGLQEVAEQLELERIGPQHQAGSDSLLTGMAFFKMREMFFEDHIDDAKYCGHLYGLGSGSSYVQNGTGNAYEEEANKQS
SMILES,Kd (CNOT7; [2]) [µM],Activity by gel [1],"Kd (CNOT7; Table 6, dissociation constant for CNOT7 by SPR) [µM]","relative potency in biochemical assay ([1]; bait conjugated to rSM (Example 17, FIG. 18))"
COc1ccc(C(C)NC(=O)C(CCOCCOCCOCCn2cc(COCCOCCOc3ccc(NC(=O)Nc4nc(CC(=O)N5CCN(C)CC5)cs4)cc3)nn2)Sc2nc(=O)[nH]cc2Cl)c(F)c1 (centres unmarked) [Compound I-395],1 to 25,+ (weak),,
COc1ccc(C(C)NC(=O)C(CCOCCOCCOCCn2cc(CCc3ccc(NC(=O)Nc4nc(CC(=O)N5CCN(C)CC5)cs4)cc3)nn2)Sc2nc(=O)[nH]cc2C)c(F)c1 (centres unmarked) [Compound I-382],,+,,
COc1ccc2c(c1)CC(COCCOCCOCCOCc1cn(CCOc3ccc(NC(=O)Nc4nc(CC(=O)N5CCN(C)CC5)cs4)cc3)nn1)N(C(=O)CSc1nc(=O)[nH]cc1C)C2 (centres unmarked) [Compound I-451],> 25,−,,
COc1ccc(CNC(=O)[C@H](COCCOCCOCCn2cc(COCCOCCOc3ccc(NC(=O)Nc4nc(CC(=O)N5CCN(C)CC5)cs4)cc3)nn2)Sc2nc(=O)[nH]cc2C)c(F)c1 [Compound I-474],1 to 25,−,,
COc1ccc2c(c1)C[C@@H](COCCOCCOCCOCCn1cc(COCCOCCOc3ccc(NC(=O)Nc4nc(CC(=O)N5CCN(C)CC5)cs4)cc3)nn1)C(C(=O)CSc1nc(=O)[nH]cc1C)C2 (some centres unmarked) [Compound I-495],> 25,−,,
COc1ccc(CNC(=O)[C@H](COCCOCCOCCn2cc(COCCOCCOCCOCCOc3ccc(NC(=O)Nc4nc(CC(=O)N5CCN(C)CC5)cs4)cc3)nn2)Sc2nc(=O)[nH]cc2C)c(F)c1 [Compound I-478],1 to 25,+,,
COc1ccc(CNC(=O)[C@H](COCCOCCOCCn2cc(COCCOCCOCCOCCOc3ccc(NC(=O)Nc4nc(CC(=O)N5CCN(C)CC5)cs4)cc3)nn2)Sc2nc(=O)[nH]cc2C)cc1 [Compound I-476],1 to 25,−,,
COc1ccc(CNC(=O)[C@H](COCCOCCOCCn2cc(COCCOCCOc3ccc(NC(=O)Nc4nc(CC(=O)N5CCN(C)CC5)cs4)cc3)nn2)Sc2nc(=O)[nH]cc2C)cc1 [Compound I-469],1 to 25,−,,
COc1ccc2c(c1)C[C@H](COCCOCCOCCOCc1cn(CCOc3ccc(NC(=O)Nc4nc(CC(=O)N5CCN(C)CC5)cs4)cc3)nn1)N(C(=O)CSc1nc(=O)[nH]cc1C)C2 [Compound I-339],> 25,+,,
Cc1c[nH]c(=O)nc1SCC(=O)NCc1ccc(OCCOCCOCCOCCn2cc(COc3ccc(NC(=O)Nc4nc(CC(=O)N5CCN(C)CC5)cs4)cc3)nn2)cc1 [Compound I-533],,−,,
COc1ccc([C@@H](C)NC(=O)[C@H](CCOCCOCCOCCn2cc(COCCOCCOCCOCCOc3ccc(NC(=O)Nc4nc(CC(=O)N5CCN(C)CC5)cs4)cc3)nn2)Sc2nc(=O)[nH]cc2Cl)c(F)c1 [Compound I-398],,−,,
COc1ccc2c(c1)C[C@@H](COCCOCCOCCOCc1cn(CCOc3ccc(NC(=O)Nc4nc(CC(=O)N5CCN(C)CC5)cs4)cc3)nn1)N(C(=O)CSc1nc(=O)[nH]cc1C)C2 [Compound I-338],> 25,−,,
COc1ccc([C@@H](C)NC(=O)[C@H](COCCOCCOCc2cn(CCOc3ccc(NC(=O)Nc4nc(CC(=O)N5CCN(C)CC5)cs4)cc3)nn2)Sc2nc(=O)[nH]cc2Cl)c(F)c1 [Compound I-373],> 25,+,,
COc1ccc(CNC(=O)[C@@H](COCCOCCOCCn2cc(COCCOCCOCCOCCOc3ccc(NC(=O)Nc4nc(CC(=O)N5CCN(C)CC5)cs4)cc3)nn2)Sc2nc(=O)[nH]cc2C)cc1 [Compound I-475],1 to 25,−,,
COc1ccc(CNC(=O)[C@@H](COCCOCCOCCn2cc(COCCOCCOc3ccc(NC(=O)Nc4nc(CC(=O)N5CCN(C)CC5)cs4)cc3)nn2)Sc2nc(=O)[nH]cc2C)c(F)c1 [Compound I-473],1 to 25,−,,
COc1ccc([C@@H](C)NC(=O)[C@H](CCC(=O)N(C)Cc2cn(CCOc3ccc(NC(=O)Nc4nc(CC(=O)N5CCN(C)CC5)cs4)cc3)nn2)Sc2nc(=O)[nH]cc2C)c(F)c1 [Compound I-505],,−,,
COc1ccc([C@@H](C)NC(=O)[C@@H](CCC(=O)N(C)Cc2cn(CCOc3ccc(NC(=O)Nc4nc(CC(=O)N5CCN(C)CC5)cs4)cc3)nn2)Sc2nc(=O)[nH]cc2C)c(F)c1 [Compound I-506],,−,,
COc1ccc([C@@H](C)NC(=O)[C@@H](COCCOCCOCc2cn(CCOc3ccc(NC(=O)Nc4nc(CC(=O)N5CCN(C)CC5)cs4)cc3)nn2)Sc2nc(=O)[nH]cc2Cl)c(F)c1 [Compound I-372],1 to 25,+,,
COc1ccc(C(C)NC(=O)C(CCC(=O)N(C)c2cccc(OCCOc3ccc(NC(=O)Nc4nc(CC(=O)N5CCN(C)CC5)cs4)cc3)c2)Sc2nc(=O)[nH]cc2C)c(F)c1 (centres unmarked) [Compound I-515],,−,,
COc1ccc2c(c1)C[C@@H](COCCOCCOCCOCCn1cc(COCCOCCOCCOCCOc3ccc(NC(=O)Nc4nc(CC(=O)N5CCN(C)CC5)cs4)cc3)nn1)N(C(=O)CSc1nc(=O)[nH]cc1C)C2 [Compound I-497],> 25,+ (weak),,
COc1ccc(C(C)NC(=O)C(COCCOCCOCCc2cn(COc3ccc(NC(=O)Nc4nc(CC(=O)N5CCN(C)CC5)cs4)cc3)nn2)Sc2nc(=O)[nH]cc2C)c(F)c1 (centres unmarked) [Compound I-329],1 to 25,−,1 to 25,more potent
